Reference: patent publication US20200291086A1, “BIOREVERSABLE PROMOIETIES FOR NITROGEN-CONTAINING AND HYDROXYL-CONTAINING DRUGS” (priority 2013, published 2020)
Numbered stars: 1 amine (or outer) side, 2 acyl side, 3 side chain; on linkers, the order of the positions; unused ones are H or OH. Square brackets hold non-standard residues; d marks the D form. Peptide text beside a SMILES is read from it. * marks the point of attachment. X16 = C[C@H](N)c1nc(SCC(=O)NCCNC(=O)OCC2c3ccccc3-c3ccccc32)cn1[C@@H](C)C(=O)*; X10 = C[C@H](N)c1nnnn1[C@@H](CCCCN[*:1])C(=O)[*:2]; X8 = C[C@@H](C(=O)[*:2])n1nncc1[C@@H](N)CCCCN[*:1]; X3 = NCc1cccn1[C@@H](CCCCN[*:1])C(=O)[*:2]; Fmoc = O=C(OCC1c2ccccc2-c2ccccc21)*; X15 = NCc1cc(S(N)(=O)=O)ccc1C(=O)*; X14 = NCCc1ccccc1C(=O)*

system: not listed separately; assay: Determination of half life in serum: cleavage of promoieties from capped D-amino acid model peptides; format: in vitro ADME; settings: 100% serum, 37° C.; read-out: t 1/2 (h), cleavage of promoiety linked to N terminus of model peptide X-G-dI-dV-dE-dQ-dA-dA (converted)
Protocol: Determination of Half Life in Serum
Promoiety capped model peptides X-G-dI-dV-dE-dQ-dA-dA were used in the assay. D amino acids were used to prevent other enzymatic cleavage of the model peptides. The peptides were dissolved in 100% serum and incubated at 37° C. Samples were collected for analysis at different time points (e.g., 1 h, 2 h, 4 h, 8 h, 12 h, 24 h, 48 h, 72 h, 96 h, and 120 h).
The concentrations of the promoiety capped model peptides and the released parent model peptides were determined by their respective peak areas. The first order dissociation rate constant of a promoiety capped model peptide was determined by plotting the logarithm of [starting promoiety capped model peptide]/[remaining promoiety capped model peptide] at various time intervals. The half life for cleavage of a promoiety capped model peptide was calculated by using the equation and the slope derived from this plot.

Compound | half-life
CC[C@@H](C)[C@@H](NC(=O)CNC(=O)[C@H](CCCCNC(=O)OCC1c2ccccc2-c2ccccc21)n1cccc1CN)C(=O)N[C@@H](C(=O)N[C@H](CCC(=O)O)C(=O)N[C@H](CCC(N)=O)C(=O)N[C@H](C)C(=O)N[C@H](C)C(=O)O)C(C)C (Fmoc-[X3]G[dI][dV][dE][dQ][dA][dA]-OH) | 103 h
CC[C@@H](C)[C@@H](NC(=O)CNC(=O)[C@H](C)n1nncc1[C@@H](N)CCCCNC(=O)OCC1c2ccccc2-c2ccccc21)C(=O)N[C@@H](C(=O)N[C@H](CCC(=O)O)C(=O)N[C@H](CCC(N)=O)C(=O)N[C@H](C)C(=O)N[C@H](C)C(=O)O)C(C)C (Fmoc-[X8]G[dI][dV][dE][dQ][dA][dA]-OH) | 96.4 h
CC[C@@H](C)[C@@H](NC(=O)CNC(=O)[C@H](CCCCNC(=O)OCC1c2ccccc2-c2ccccc21)n1nnnc1[C@H](C)N)C(=O)N[C@@H](C(=O)N[C@H](CCC(=O)O)C(=O)N[C@H](CCC(N)=O)C(=O)N[C@H](C)C(=O)N[C@H](C)C(=O)O)C(C)C (Fmoc-[X10]G[dI][dV][dE][dQ][dA][dA]-OH) | 91.5 h
CC[C@@H](C)[C@@H](NC(=O)CNC(=O)c1ccccc1CCN)C(=O)N[C@@H](C(=O)N[C@H](CCC(=O)O)C(=O)N[C@H](CCC(N)=O)C(=O)N[C@H](C)C(=O)N[C@H](C)C(=O)O)C(C)C (X14-G[dI][dV][dE][dQ][dA][dA]-OH) | 106 h
CC[C@@H](C)[C@@H](NC(=O)CNC(=O)c1ccc(S(N)(=O)=O)cc1CN)C(=O)N[C@@H](C(=O)N[C@H](CCC(=O)O)C(=O)N[C@H](CCC(N)=O)C(=O)N[C@H](C)C(=O)N[C@H](C)C(=O)O)C(C)C (X15-G[dI][dV][dE][dQ][dA][dA]-OH) | 39.9 h
CC[C@@H](C)[C@@H](NC(=O)CNC(=O)[C@H](C)n1cc(SCC(=O)NCCNC(=O)OCC2c3ccccc3-c3ccccc32)nc1[C@H](C)N)C(=O)N[C@@H](C(=O)N[C@H](CCC(=O)O)C(=O)N[C@H](CCC(N)=O)C(=O)N[C@H](C)C(=O)N[C@H](C)C(=O)O)C(C)C (X16-G[dI][dV][dE][dQ][dA][dA]-OH) | 72.3 h

target: insulin receptor (Homo sapiens, UniProt P06213); assay: not given; settings: cited from earlier work
Sequence (P06213 28-758 limits assumed, species assumed): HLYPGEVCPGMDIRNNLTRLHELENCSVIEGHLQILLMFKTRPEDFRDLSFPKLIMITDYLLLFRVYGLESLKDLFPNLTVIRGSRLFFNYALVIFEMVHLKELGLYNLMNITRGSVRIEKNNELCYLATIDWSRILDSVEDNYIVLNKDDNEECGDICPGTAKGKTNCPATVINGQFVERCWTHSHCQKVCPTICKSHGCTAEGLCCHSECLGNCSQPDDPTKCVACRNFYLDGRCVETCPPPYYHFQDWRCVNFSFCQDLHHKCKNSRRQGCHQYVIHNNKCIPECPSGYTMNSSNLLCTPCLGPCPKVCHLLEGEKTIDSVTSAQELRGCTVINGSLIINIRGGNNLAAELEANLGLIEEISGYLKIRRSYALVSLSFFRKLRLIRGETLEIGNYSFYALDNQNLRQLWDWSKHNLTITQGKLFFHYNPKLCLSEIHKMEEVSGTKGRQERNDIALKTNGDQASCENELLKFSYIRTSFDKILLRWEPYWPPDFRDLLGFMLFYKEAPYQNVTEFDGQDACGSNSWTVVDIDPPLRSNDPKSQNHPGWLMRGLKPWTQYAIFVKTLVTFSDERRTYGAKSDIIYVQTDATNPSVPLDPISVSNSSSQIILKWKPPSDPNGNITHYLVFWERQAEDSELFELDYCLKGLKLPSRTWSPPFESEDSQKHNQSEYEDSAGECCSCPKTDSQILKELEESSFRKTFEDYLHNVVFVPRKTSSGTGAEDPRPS
Sequence (P06213 763-1382 partner limits assumed, species assumed): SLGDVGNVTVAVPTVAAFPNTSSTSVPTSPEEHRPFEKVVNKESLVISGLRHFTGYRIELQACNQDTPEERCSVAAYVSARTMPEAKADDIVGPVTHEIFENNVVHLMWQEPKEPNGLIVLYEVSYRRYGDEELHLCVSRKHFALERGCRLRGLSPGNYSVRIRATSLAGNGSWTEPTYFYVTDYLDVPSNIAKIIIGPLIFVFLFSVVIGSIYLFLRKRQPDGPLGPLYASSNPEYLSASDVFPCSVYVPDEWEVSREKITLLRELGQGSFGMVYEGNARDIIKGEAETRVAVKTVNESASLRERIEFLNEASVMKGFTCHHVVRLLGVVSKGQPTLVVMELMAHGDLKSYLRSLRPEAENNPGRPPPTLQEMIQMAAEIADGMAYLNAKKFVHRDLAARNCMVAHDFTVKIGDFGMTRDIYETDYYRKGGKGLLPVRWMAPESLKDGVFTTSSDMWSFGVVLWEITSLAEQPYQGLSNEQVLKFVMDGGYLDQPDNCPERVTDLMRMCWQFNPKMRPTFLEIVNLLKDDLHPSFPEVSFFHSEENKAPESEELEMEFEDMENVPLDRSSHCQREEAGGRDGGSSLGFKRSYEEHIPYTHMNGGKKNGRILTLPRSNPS

Compound | binding affinity retained relative to native insulin
[LysB29-tetradecanoyl, des B30] insulin [insulin detemir] | 15-20%
